Data as given in publication PMC8860869 (Chemical research in toxicology, 2022).

How the values were obtained:
Experiment in all cases: cross-linking in cells, immunoblot
Assay type in all cases: cell-based
Details in all cases: covalent; living yeast, toxic concentrations
Eug1 = target: T1, Eug1 (Saccharomyces cerevisiae, UniProt P32474)
T1 sequence (P32474 30-517): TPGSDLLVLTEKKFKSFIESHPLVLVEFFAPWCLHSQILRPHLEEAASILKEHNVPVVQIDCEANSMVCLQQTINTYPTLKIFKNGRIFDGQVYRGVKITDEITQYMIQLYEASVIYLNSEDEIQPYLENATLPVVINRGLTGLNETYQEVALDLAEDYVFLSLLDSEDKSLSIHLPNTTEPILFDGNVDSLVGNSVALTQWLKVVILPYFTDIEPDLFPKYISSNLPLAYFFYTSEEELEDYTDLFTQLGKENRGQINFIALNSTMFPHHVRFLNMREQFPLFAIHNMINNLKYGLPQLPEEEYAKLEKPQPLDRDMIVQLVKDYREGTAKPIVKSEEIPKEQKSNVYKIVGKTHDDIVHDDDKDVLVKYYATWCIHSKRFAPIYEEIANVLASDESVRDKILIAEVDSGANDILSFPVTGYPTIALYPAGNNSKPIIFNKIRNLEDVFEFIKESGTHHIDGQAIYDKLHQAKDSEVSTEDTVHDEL

Mpd2 = target: T2, Mpd2 (Saccharomyces cerevisiae, UniProt Q99316)
T2 sequence (Q99316 23-277): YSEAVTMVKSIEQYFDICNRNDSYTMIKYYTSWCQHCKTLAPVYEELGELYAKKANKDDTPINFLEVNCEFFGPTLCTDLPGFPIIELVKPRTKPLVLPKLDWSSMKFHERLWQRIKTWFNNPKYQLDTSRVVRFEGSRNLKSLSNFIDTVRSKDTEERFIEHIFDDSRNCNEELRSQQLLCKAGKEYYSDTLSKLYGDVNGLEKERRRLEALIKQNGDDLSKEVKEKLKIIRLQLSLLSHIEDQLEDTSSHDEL

Mpd1 = target: T3, Mpd1 (Saccharomyces cerevisiae, UniProt Q12404)
T3 sequence (Q12404 22-318): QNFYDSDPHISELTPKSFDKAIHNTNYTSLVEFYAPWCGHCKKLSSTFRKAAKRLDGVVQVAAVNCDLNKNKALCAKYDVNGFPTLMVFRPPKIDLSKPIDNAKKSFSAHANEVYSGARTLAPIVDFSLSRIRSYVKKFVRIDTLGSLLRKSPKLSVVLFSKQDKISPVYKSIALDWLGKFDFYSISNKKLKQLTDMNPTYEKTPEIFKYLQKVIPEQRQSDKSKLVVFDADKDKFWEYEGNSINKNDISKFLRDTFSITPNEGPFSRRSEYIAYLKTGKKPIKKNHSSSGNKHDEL

Pdi1 = target: T4, Pdi1 (Saccharomyces cerevisiae, UniProt P17967)
T4 sequence (P17967 29-522): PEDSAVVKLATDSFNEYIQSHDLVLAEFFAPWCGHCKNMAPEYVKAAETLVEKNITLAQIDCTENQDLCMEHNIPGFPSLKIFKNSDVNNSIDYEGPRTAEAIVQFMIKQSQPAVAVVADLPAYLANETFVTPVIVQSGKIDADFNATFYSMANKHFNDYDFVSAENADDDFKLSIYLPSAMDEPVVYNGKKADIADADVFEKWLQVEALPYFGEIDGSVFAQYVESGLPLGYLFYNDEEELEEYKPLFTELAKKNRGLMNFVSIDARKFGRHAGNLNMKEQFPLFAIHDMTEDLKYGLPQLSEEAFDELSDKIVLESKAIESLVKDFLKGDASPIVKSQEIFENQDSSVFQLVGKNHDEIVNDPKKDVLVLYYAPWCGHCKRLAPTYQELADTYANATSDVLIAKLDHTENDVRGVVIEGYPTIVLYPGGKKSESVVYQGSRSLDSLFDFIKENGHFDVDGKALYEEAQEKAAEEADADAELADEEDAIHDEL

## C1OC1C1CO1 (stereo not shown) [1,2,3,4-diepoxybutane]
Eug1
  cross-linking in cells, immunoblot: Each of these proteins also underwent protein cross-linking in cells treated with toxic concentrations
Mpd2
  cross-linking in cells, immunoblot: Each of these proteins also underwent protein cross-linking in cells treated with toxic concentrations
Mpd1
  cross-linking in cells, immunoblot: Each of these proteins also underwent protein cross-linking in cells treated with toxic concentrations
Pdi1
  cross-linking in cells, immunoblot: Each of these proteins also underwent protein cross-linking in cells treated with toxic concentrations
